In US20220095617A1, “PLANT GROWTH REGULATING AGENT” (IDEMITSU KOSAN CO.,LTD., priority 2019, published 2022):

Key:
lettuce (Green Wave) [1] = assay: Example 1: High-temperature stress Petri dish test (lettuce), comparison with other natural products; type: in vivo; settings: 0.1 ppm in agar medium
lettuce (Green Wave) [2] = assay: Example 4: High-temperature stress Petri dish test (lettuce), comparison with flavonoids; type: in vivo; settings: 0.1 ppm
lettuce (Green Wave) [3] = assay: Example 2: High-temperature stress Petri dish test (lettuce), blending with neohesperidin
Experimental: For seeds, 2% water agar medium (using water as the solvent), which was prepared such that hesperidin (Fujifilm Wako Pure Chemical Corporation; special-grade reagent) and neohesperidin (Fujifilm Wako Pure Chemical Corporation; special-grade reagent) were contained at the predetermined final concentrations shown in Table 2, was filled into square Petri dishes (“model number: D-210-16”, manufactured by As One Corporation). Before high-temperature treatment, lettuce (Green Wave, Takii & Co., Ltd.) was sown on 2% water agar medium, and lettuce seedlings on day 2 after the sowing were transplanted to the above-described agar medium to which the hesperidin and/or the like was/were added. At the time of the transplantation, the tip of the root was marked. Each Petri dish after the transplantation was placed in an incubator (“model number: FLI-2010A”, manufactured by EYELA) at an angle of 45° with respect to the bottom surface, and high-temperature treatment was carried out at 42° C. for 1.5 hours. Thereafter, culture was similarly performed at 23° C. for 2 days, and then the increase in the root length was evaluated in terms of elongation from the tip of the root of each seedling at the time of the transplantation. In addition, for evaluation of the effect of the mixture of hesperidin and neohesperidin in normal cultivation, culture was similarly performed at 23° C. without performing the high-temperature treatment, followed by evaluation of the increase in the root length. […] The Colby's equation is as follows.
E=(x+y)−(x·y)/100 Colby's equation:
E: Expected root length x: Root length in the case of application of hesperidin alone y: Root length in the case of application of neohesperidin alone For each group, 15 measurement results were obtained (N=15).

lettuce (Green Wave) [4] = assay: Example 3: High-temperature stress Petri dish test (lettuce), blending with β-carotene; type: in vivo; settings: 0.1 ppm
Rice (Koshihikari) seeds = assay: Example 5: High-temperature stress Petri dish test (rice seeds); type: in vivo; settings: for Germination rate, Increase rate: non-addition group = 100.0; for Germination rate, Average: seeds 65° C. hot water 10 minutes, 28° C. 5 days
Experimental: Rice (Koshihikari) seeds were soaked in hot water at 65° C. for 10 minutes to perform high-temperature treatment. […] A group similarly soaked in distilled water was provided as a non-addition group. After the soaking treatment, the seeds were dried in air, and then 20 seeds were sown on each of shallow Petri dishes in which qualitative filter paper was placed. To the filter paper in each Petri dish, 5 mL of distilled water was uniformly added dropwise. […] For each group, three measurement results were obtained (N=3).

[5] = High-temperature treatment (42° C., 1.5 hours), then 23° C. 2 days
[6] = High-temperature treatment (42° C., 1.5 hours)

CC1=C(/C=C/C(C)=C/C=C/C(C)=C/C=C/C=C(C)/C=C/C=C(C)/C=C/C2=C(C)C(=O)[C@@H](O)CC2(C)C)C(C)(C)C[C@H](O)C1=O [Astaxanthin, reference compound]
Root length (lettuce (Green Wave) [1]; [5]): 11.1 mm
Root length (lettuce (Green Wave) [1]; Normal cultivation): 20.0 mm

CC1=C(/C=C/C(C)=C/C=C/C(C)=C/C=C/C=C(C)/C=C/C=C(C)/C=C/C(=O)[C@]2(C)C[C@@H](O)CC2(C)C)C(C)(C)C[C@H](O)C1 [Capsanthin, reference compound]
Root length (lettuce (Green Wave) [1]; [5]): 10.7 mm
Root length (lettuce (Green Wave) [1]; Normal cultivation): 20.4 mm

O=c1c(-c2ccc(O)cc2)coc2cc(O)ccc12 [Daidzein]
Root length (lettuce (Green Wave) [2]; [6]): 7.5 mm
Root length (lettuce (Green Wave) [2]; Normal cultivation): 26.6 mm

O=c1c(-c2ccc(O)cc2)coc2cc(O)cc(O)c12 [Genistein]
Root length (lettuce (Green Wave) [2]; [6]): 7.4 mm
Root length (lettuce (Green Wave) [2]; Normal cultivation): 25.8 mm

COc1ccc([C@@H]2CC(=O)c3c(O)cc(O)cc3O2)cc1O [Hesperetin, hesperetin]
Root length (lettuce (Green Wave) [1]; [5]): 18.0 mm
Root length (lettuce (Green Wave) [1]; Normal cultivation): 23.5 mm

O=C1C[C@@H](c2ccc(O)cc2)Oc2cc(O)cc(O)c21 [Naringenin]
Root length (lettuce (Green Wave) [2]; [6]): 8.4 mm
Root length (lettuce (Green Wave) [2]; Normal cultivation): 22.1 mm

COc1ccc(CCC(=O)c2c(O)cc(O[C@@H]3O[C@H](CO)[C@@H](O)[C@H](O)[C@H]3O[C@@H]3O[C@@H](C)[C@H](O)[C@@H](O)[C@H]3O)cc2O)cc1O [Neohesperidin dihydrochalcone, neohesperidin dihydrochalcone]
Root length (lettuce (Green Wave) [1]; [5]): 15.3 mm
Root length (lettuce (Green Wave) [1]; Normal cultivation): 23.4 mm

COc1ccc([C@@H]2CC(=O)c3c(O)cc(O[C@@H]4O[C@H](CO)[C@@H](O)[C@H](O)[C@H]4O[C@@H]4O[C@@H](C)[C@H](O)[C@@H](O)[C@H]4O)cc3O2)cc1O [Neohesperidin]
Root length (lettuce (Green Wave) [3]; High-temperature treatment (42° C., 1.5 hours), 0.03 ppm): 4.9 mm
Root length (lettuce (Green Wave) [3]; High-temperature treatment (42° C., 1.5 hours), 0.1 ppm): 6.4 mm
Root length (lettuce (Green Wave) [3]; Normal cultivation, 0.03 ppm): 17.6 mm
Root length (lettuce (Green Wave) [3]; Normal cultivation, 0.1 ppm): 18.1 mm
Root length (lettuce (Green Wave) [1]; [5]): 21.5 mm
Root length (lettuce (Green Wave) [1]; Normal cultivation): 26.5 mm

COc1ccc(-c2cc(=O)c3c(OC)c(OC)c(OC)c(OC)c3o2)cc1OC [Nobiletin, nobiletin]
Root length (lettuce (Green Wave) [1]; [5]): 14.1 mm
Root length (lettuce (Green Wave) [1]; Normal cultivation): 23.1 mm

O=C(CCc1ccc(O)cc1)c1c(O)cc(O)cc1O [Phloretin, phloretin]
Root length (lettuce (Green Wave) [1]; [5]): 14.8 mm
Root length (lettuce (Green Wave) [1]; Normal cultivation): 21.9 mm

COc1ccc(-c2cc(=O)c3c(OC)c(OC)c(OC)c(OC)c3o2)cc1 [Tangeretin, tangeretin]
Root length (lettuce (Green Wave) [1]; [5]): 18.1 mm
Root length (lettuce (Green Wave) [1]; Normal cultivation): 23.5 mm

COc1ccc([C@@H]2CC(=O)c3c(O)cc(O[C@@H]4O[C@H](CO[C@@H]5O[C@@H](C)[C@H](O)[C@@H](O)[C@H]5O)[C@@H](O[C@H]5O[C@H](CO)[C@@H](O)[C@H](O)[C@H]5O)[C@H](O)[C@H]4O)cc3O2)cc1O [α-Monoglucosyl hesperidin, α-monoglucosyl hesperidin]
Root length (lettuce (Green Wave) [1]; [5]): 18.7 mm
Root length (lettuce (Green Wave) [1]; Normal cultivation): 23.7 mm

CC1=C(/C=C/C(C)=C/C=C/C(C)=C/C=C/C=C(C)/C=C/C=C(C)/C=C/C2=C(C)CCCC2(C)C)C(C)(C)CCC1 [β-Carotene, reference compound]
Root length (lettuce (Green Wave) [4]; [6]): 7.5 mm
Root length (lettuce (Green Wave) [4]; Normal cultivation): 23.8 mm
Germination rate, Increase rate (Rice (Koshihikari) seeds; 1 ppm): 118.9%
Germination rate, Increase rate (Rice (Koshihikari) seeds; 10 ppm): 134.0%
Germination rate, Increase rate (Rice (Koshihikari) seeds; 100 ppm): 103.7%
Germination rate, Average (Rice (Koshihikari) seeds; then soaked 1 hour at 1 ppm): 69.9%
Germination rate, Average (Rice (Koshihikari) seeds; then soaked 1 hour at 10 ppm): 78.8%
Germination rate, Average (Rice (Koshihikari) seeds; then soaked 1 hour at 100 ppm): 61.0%
Root length (lettuce (Green Wave) [1]; [5]): 11.2 mm
Root length (lettuce (Green Wave) [1]; Normal cultivation): 22.3 mm

hesperidin methylchalcone
Root length (lettuce (Green Wave) [1]; [5]): 16.7 mm
Root length (lettuce (Green Wave) [1]; Normal cultivation): 22.8 mm
